The test system of one assay is MC38 cells. The assay can be described thus: Phagocytosis assay, BMDM co-cultured with GFP+ MC38 cells. Format: cell-based, mouse. As to conditions: 20 μM, 4 h. The procedure:
(§1) Bone marrow-derived macrophage (BMDM) cells were isolated from C57BL/6 or BALB/c mice and induced with 20 ng/mL of GM-CSF (Peprotech, Rocky Hill, CT, USA) for 7 days. Meanwhile, the medium was replaced with fresh medium containing the cytokine and the adherent cells were harvested. Phagocytosis assays were performed by a co-culture of the BMDM macrophages with carboxyfluorescein succinimidyl ester-labeled (CFSE^+) or GFP^+ tumor cells at a ratio of 1:4 in a serum-free medium at 37 °C for 4 h, in low-attachment 96-well tissue culture plates (Corning, New York, NY, USA). The cells were harvested and the macrophages were identified by a flow cytometry using anti-F4/80 antibody (eBioscience, San Diego, CA, USA). Then, 7-AAD (eBioscience) was used to exclude the dead cells. The effects of azelnidipine (20 μM) on phagocytosis by BMDM cells were tested, and the anti-CD47 antibody (clone: miap301) were used as the positive control. Phagocytosis rate was determined with the formulation: F4/80^+GFP^+ or F4/80^+CFSE^+ cells/ Total F4/80^+ cells.
(§2) Figure 4 Azelnidipine enhances macrophage mediated phagocytosis of the tumor cells. The effects of the azelnidipine on the phagocytosis of the macrophages were tested by a co-culture of the tumor cells and BMDM cell derived from C57BL/6 or BALB/c mice. […] GFP^+ or CFSE^+ BMDMs were detected by a flow cytometry. […]

In a further assay the test system is CT26 cells. Nature of the assay: Phagocytosis assay, BMDM co-cultured with CFSE-labeled CT26 cells. Format: cell-based, mouse. As to conditions: 20 μM, 4 h. On the procedure: as §1, §2
The test system of another assay is B16-OVA cells. Nature of the assay: Phagocytosis assay, BMDM co-cultured with GFP+ B16-OVA cells. Type of assay: cell-based, mouse. As to conditions: 20 μM, 4 h. The procedure:
as §1, §2

The test system of the next assay is CT26 tumors. Nature of the assay: CD8+ T cell depletion CT26 tumor model. Type of assay: in vivo, BALB/c mice. On the procedure:
To establish the CD8^+ T cell depletion model, BALB/c mice were injected with 200 μg of CD8-depleting antibody (clone: YTS169.4) or matched Rat IgG isotype control (Sigma-Aldrich) the day before tumor inoculation and as well as weekly thereafter, resulting in a total of 3 injections per mouse. Depletion efficacy of CD8^+ T cells was verified by a flow cytometry with the blood sample of mice treated with indicated antibodies for 7 days.
Figure S2. The antitumor effects of Azelnidipine in CD8+ T cell depleted CT26 tumor model.
(A) CT26 tumor-bearing mice were i.p. administrated with 5 mg/kg of Azelnidipine daily as in the schematic diagram. (B) Blood samples of the mice treated with 200 μg anti-CD8 (YTS 169.4) or Rat IgG control for seven days were used to analyze the depletion efficacy by flow cytometry.
(C) Tumor growth curve of CT26 tumor-bearing mice treated with normal saline or Azelnidipine alone (n = 5 or 6). (D) Representative flow cytometry plots and summary data of the MDSCs in the tumor tissues of the Rat IgG treated groups (NS and Azelnidipine). (E) Representative flow cytometry histograms and summary data of the expression of SIRPα on M-MDSCs in the tumor tissues of the Rat IgG treated groups (NS and Azelnidipine). *, P<0.05.
(§3) (1 picture or pasted object on this page, not shown here)

The next assay relates to PVR. Nature of the assay: Flow cytometry of PVR expression on CT26 cells in vitro. Type of assay: cell-based, mouse. As to conditions: 20 μM, 24 h. On the procedure: Cells in good growth condition were harvested and used to detect the expression of CD47 and PVR. Antibodies anti-human CD47 APC, anti-human PVR PE, anti-mouse-CD47 APC, anti-mouse-PVR APC, and matched isotype controls were purchased from eBioscience, San Diego, CA, USA. The effects of azelnidipine on the expression of CD47 and PVR was determined by incubating CT26 cells with 20 μM of azelnidipine for 24 h, or directly analyzing the tumor cells from tumor tissues of CT26-bearing mice treated with or without azelnidipine.
Figure S3. The effects of Azelnidipine on the expression of CD47 and PVR on CT26 tumor cells. (A and B) CT26 cells were incubated with 20 μM Azelnidipine or vehicle control for 24h, and analyzed the expression of CD47 (A) and PVR (B). The gray shaded histogram represents the isotype, the red line represents the cells treated with vehicle control, and the blue line represents the cells treated with Azelnidipine. (C and D) Tumor cells (CD45-) derived from the tumor tissues of CT26 tumor-bearing mice treated with normal saline (NS) or 5 mg/kg Azelnidipine for twelve days, were analyzed for the expression of CD47 (C) and PVR (D). n.s. means not […]
as §3

In a further assay the test system is THP-1 macrophages. Details: method as in PMID 29398679, PMID 20606305. To be noted: cited from earlier work.
Assay [1] deals with peripheral blood mononuclear cells. Details: method as in PMID 29398679, PMID 20606305. As to conditions: cited from earlier work.
The next assay relates to various tumor cells. Also noted: method as in earlier work. As to conditions: cited from earlier work.
For another assay, the system named is tumor. Also noted: method as in earlier work. As to conditions: cited from earlier work.
The mark [2] stands for this setting: 5 mg/kg i.p., Rat IgG treated groups.

We go through one compound from publication PMC8150775, “Repositioning Azelnidipine as a Dual Inhibitor Targeting CD47/SIRPα and TIGIT/PVR Pathways for Cancer Immuno-Therapy” (Biomolecules, 2021).

Take `CC1=C(C(=O)OC(C)C)C(c2cccc([N+](=O)[O-])c2)C(C(=O)OC2CN(C(c3ccccc3)c3ccccc3)C2)=C(N)N1` (stereo not drawn) [Azelnidipine]: the “phagocytosis of MC38 cells by BMDM cells” value in the assay with MC38 cells is on record as “significantly enhance”. The “phagocytosis of CT26 cells by BMDM cells” value in the assay on CT26 cells was “significantly enhance”. Moreover, the “phagocytosis of B16-OVA cells by BMDM cells” value with B16-OVA cells is recorded as “significantly enhance”. Also, the “anti-tumor effect with CD8+ T cells depleted” value in the assay with CT26 tumors (5 mg/kg i.p. daily, CD8-depleting antibody) is recorded as “abrogated”. The “CT26 tumor growth, Rat IgG treated groups” value in the assay on CT26 tumors (5 mg/kg i.p. daily, Rat IgG isotype control) was “significantly inhibit tumor growth”. For the same compound, in the assay on CT26 tumors (setting [2]), the “expression level of SIRPα on MDSCs in CT26 tumor tissues, NS vs azelnidipine” value is listed as “no significant difference” and the “infiltration of MDSCs in CT26 tumor tissues, NS vs azelnidipine” value is “no significant difference”. For the same compound, the “expression of PVR on CT26 cells” value with PVR was “slightly inhibit”. Besides, the “differentiation and activation of THP-1 macrophages” value with THP-1 macrophages was “inhibit the differentiation and activation”. The “cytokine secretion of peripheral blood mononuclear cells” value in [1] was “inhibit”. In addition, in the assay on various tumor cells, the “growth of various tumor cells in vitro” value is reported as “inhibit the growth of various tumor cells in vitro”. Besides, the “tumor growth in vivo” value in the assay with tumor is reported as “significantly inhibit the tumor growth in vivo”.
